Measurements published in ChEMBL document CHEMBL2040838, “Synthesis of C-4-modified zanamivir analogs as neuraminidase inhibitors and their anti-AIV activities” (Eur J Med Chem, 2012).

Assays:
Neuraminidase [1] = molecular target: T1, Neuraminidase (Influenza A virus, UniProt B4URF0); assay: Inhibition of Influenza A virus (A/Indonesia/5/2005(H5N1)) […] recombinant neuraminidase using 2'-(4-methylumbelliferyl)-alpha-D-N-acetylneuraminic acid as substrate after 1 hr by fluorescence assay
Neuraminidase [2] = molecular target: T1, Neuraminidase; assay: Inhibition of Influenza A virus (A/Sydney/5/97(H3N2)) recombinant neuraminidase using 2'-(4- methylumbelliferyl)-alpha-D-N-acetylneuraminic acid as substrate after 1 hr by fluorescence assay; set-up: species or system Influenza A virus (A/Sydney/5/1997(H3N2))
Influenza A virus [3] = assay: Antiviral activity against Influenza A virus (A/Indonesia/5/2005(H5N1)) […] infected in MDCK cells assessed as protective rate against virus-induced cytopathic effect at 5 uM after 2 days by neutral red uptake assay; assay type: functional
in vivo [4] = conditions: Sprague-Dawley, rat, po, 10 mg/kg
in vivo [5] = conditions: Sprague-Dawley, rat, plasma, po, 10 mg/kg
in vivo [6] = conditions: Sprague-Dawley, rat, po, 10 mg/kg; remark: listed apart in the source
in vivo [7] = conditions: Sprague-Dawley, rat, plasma, iv, 10 mg/kg
Influenza A virus [8] = assay: Antiviral activity against Influenza A virus (A/Indonesia/5/2005(H5N1)) […] infected in MDCK cells assessed as protective rate against virus-induced cytopathic effect at 4 uM after 2 days by neutral red uptake assay; assay type: functional
in vivo [9] = conditions: Sprague-Dawley, rat, iv, 2 mg/kg
[10] = Volume of distribution in Sprague-Dawley rat at 2 mg/kg, iv; assay type: ADME, organism-based; set-up: dose 2 mg/kg, route intravenous; conditions: in vivo
[11] = Clearance in Sprague-Dawley rat at 2 mg/kg, iv; assay type: ADME, organism-based; set-up: dose 2 mg/kg, route intravenous; conditions: in vivo

T1 sequence (B4URF0 whole entry): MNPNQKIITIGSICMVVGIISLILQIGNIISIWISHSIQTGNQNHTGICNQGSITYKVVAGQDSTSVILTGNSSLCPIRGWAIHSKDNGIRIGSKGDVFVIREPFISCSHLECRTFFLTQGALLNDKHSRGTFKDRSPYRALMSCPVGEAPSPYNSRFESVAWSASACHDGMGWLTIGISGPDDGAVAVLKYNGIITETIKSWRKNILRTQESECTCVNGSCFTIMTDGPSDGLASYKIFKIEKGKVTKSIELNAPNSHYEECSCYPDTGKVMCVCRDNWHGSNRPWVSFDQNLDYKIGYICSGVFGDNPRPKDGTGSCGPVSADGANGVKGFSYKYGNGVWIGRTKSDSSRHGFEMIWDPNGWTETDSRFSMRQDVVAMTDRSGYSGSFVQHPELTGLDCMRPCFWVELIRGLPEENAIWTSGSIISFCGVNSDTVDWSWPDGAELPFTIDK

Structure (SMILES): CC(=O)N[C@H]1[C@H]([C@H](O)[C@H](O)CO)OC(C(=O)O)=C(C/C=C/c2ccc(C)cc2)[C@@H]1O
- Ki (Neuraminidase [1]): 7.3 µM

Structure (SMILES): CC(=O)N[C@H]1[C@H]([C@H](O)[C@H](O)CO)OC(C(=O)O)=C[C@@H]1NC(=O)N[C@H](CC(N)=O)C(=O)O
- IC50 (Neuraminidase [2]): 22.3 µM
- IC50 (Neuraminidase [1]): 77.3 µM

Structure (SMILES): CC(=O)N[C@H]1[C@H]([C@H](O)[C@H](O)CO)OC(C(=O)O)=C[C@@H]1NC(=O)Nc1ccc(C)cc1
- IC50 (Neuraminidase [2]): 777 µM
- Activity (Influenza A virus [3]): 0%
- IC50 (Neuraminidase [1]): 933 µM

Structure (SMILES): CC(=O)N[C@H]1[C@H]([C@H](O)[C@H](O)CO)OC(C(=O)O)=C[C@@H]1NC(=O)Nc1ccc(Cl)cc1
- IC50 (Neuraminidase [2]): > 1000 µM
- Activity (Influenza A virus [3]): 0%
- IC50 (Neuraminidase [1]): > 1000 µM

Structure (SMILES): CC(=O)N[C@H]1[C@H]([C@H](O)[C@H](O)CO)OC(C(=O)O)=C[C@@H]1NC(=O)Nc1ccc(F)cc1
- IC50 (Neuraminidase [2]): > 1000 µM
- Activity (Influenza A virus [3]): 0%
- IC50 (Neuraminidase [1]): > 1000 µM

Structure (SMILES): COc1ccc(NC(=O)N[C@H]2C=C(C(=O)O)O[C@@H]([C@H](O)[C@H](O)CO)[C@@H]2NC(C)=O)cc1
- IC50 (Neuraminidase [2]): 848 µM
- Activity (Influenza A virus [3]): 6.9%
- IC50 (Neuraminidase [1]): 910 µM

Structure (SMILES): CC(=O)N[C@H]1[C@H]([C@H](O)[C@H](O)CO)OC(C(=O)O)=C[C@@H]1NC(=O)NCc1ccco1
- bioavailability (in vivo [4]): 2.73%
- AUC(0-t) (in vivo [5]): 381 ng·h/mL
- half-life (in vivo [6]): 340 min
- IC50 (Neuraminidase [2]): 6.6 µM
- AUC(0-t) (in vivo [7]): 14000 ng·h/mL
- Activity (Influenza A virus [3]): 58%
- IC50 (Neuraminidase [1]): 38.4 µM

Structure (SMILES): CC(=O)N[C@H]1[C@H]([C@H](O)[C@H](O)CO)OC(C(=O)O)=C[C@@H]1NC(=O)NCc1ccccc1
- IC50 (Neuraminidase [2]): 705 µM
- IC50 (Neuraminidase [1]): > 1000 µM

Structure (SMILES): CC(=O)N[C@H]1[C@H]([C@H](O)[C@H](O)CO)OC(C(=O)O)=C[C@@H]1NC(=S)Nc1ccccc1
- IC50 (Neuraminidase [2]): > 1000 µM
- Activity (Influenza A virus [3]): 13.6%
- IC50 (Neuraminidase [1]): > 1000 µM

Structure (SMILES): CC(=O)N[C@H]1[C@H]([C@H](O)[C@H](O)CO)OC(C(=O)O)=C[C@@H]1NC(=S)Nc1ccc(C(F)(F)F)cc1
- IC50 (Neuraminidase [2]): 894 µM
- Activity (Influenza A virus [3]): 34.4%
- IC50 (Neuraminidase [1]): > 1000 µM

Structure (SMILES): CC(=O)N[C@H]1[C@H]([C@H](O)[C@H](O)CO)OC(C(=O)O)=C[C@@H]1NC(=S)Nc1cccc(C(F)(F)F)c1
- IC50 (Neuraminidase [2]): > 1000 µM
- Activity (Influenza A virus [3]): 0%
- IC50 (Neuraminidase [1]): > 1000 µM

Structure (SMILES): COc1cccc(NC(=S)N[C@H]2C=C(C(=O)O)O[C@@H]([C@H](O)[C@H](O)CO)[C@@H]2NC(C)=O)c1
- IC50 (Neuraminidase [2]): > 1000 µM
- Activity (Influenza A virus [3]): 0%
- IC50 (Neuraminidase [1]): > 1000 µM

Structure (SMILES): CC(=O)N[C@H]1[C@H]([C@H](O)[C@H](O)CO)OC(C(=O)O)=C[C@@H]1NC(=S)Nc1ccccc1F
- IC50 (Neuraminidase [2]): 57.1 µM
- Activity (Influenza A virus [3]): 14.8%
- IC50 (Neuraminidase [1]): 396 µM

Structure (SMILES): COc1ccccc1NC(=S)N[C@H]1C=C(C(=O)O)O[C@@H]([C@H](O)[C@H](O)CO)[C@@H]1NC(C)=O
- IC50 (Neuraminidase [2]): 89.6 µM
- Activity (Influenza A virus [3]): 11.7%
- IC50 (Neuraminidase [1]): 578 µM

Structure (SMILES): CC(=O)N[C@H]1[C@H]([C@H](O)[C@H](O)CO)OC(C(=O)O)=C[C@@H]1NC(=S)Nc1ccccc1Br
- IC50 (Neuraminidase [2]): > 1000 µM
- Activity (Influenza A virus [3]): 2.9%
- IC50 (Neuraminidase [1]): > 1000 µM

Structure (SMILES): CC(=O)N[C@H]1[C@H]([C@H](O)[C@H](O)CO)OC(C(=O)O)=C[C@@H]1NC(=S)Nc1cccc2ccccc12
- IC50 (Neuraminidase [2]): 674 µM
- Activity (Influenza A virus [3]): 0%
- IC50 (Neuraminidase [1]): 901 µM

Structure (SMILES): CCNC(=S)N[C@H]1C=C(C(=O)O)O[C@@H]([C@H](O)[C@H](O)CO)[C@@H]1NC(C)=O
- IC50 (Neuraminidase [2]): 612 µM
- IC50 (Neuraminidase [1]): 298 µM
- Activity (Influenza A virus [8]): 27.8%

Structure (SMILES): CC(=O)N[C@H]1[C@H]([C@H](O)[C@H](O)CO)OC(C(=O)O)=C[C@@H]1NC(=S)NCCCl
- IC50 (Neuraminidase [2]): 100 µM
- IC50 (Neuraminidase [1]): 67.2 µM
- Activity (Influenza A virus [8]): 20.3%

Structure (SMILES): CCCCNC(=S)N[C@H]1C=C(C(=O)O)O[C@@H]([C@H](O)[C@H](O)CO)[C@@H]1NC(C)=O
- IC50 (Neuraminidase [2]): 64.5 µM
- IC50 (Neuraminidase [1]): 21.4 µM
- Activity (Influenza A virus [8]): 32.6%

Structure (SMILES): CC(=O)N[C@H]1[C@H]([C@H](O)[C@H](O)CO)OC(C(=O)O)=C[C@@H]1NC(=S)NC1CC1
- IC50 (Neuraminidase [2]): 550 µM
- IC50 (Neuraminidase [1]): 295 µM
- Activity (Influenza A virus [8]): 11.3%

Structure (SMILES): CC(=O)N[C@H]1[C@H]([C@H](O)[C@H](O)CO)OC(C(=O)O)=C[C@@H]1NC(=O)NCC(=O)O
- IC50 (Neuraminidase [2]): 530 µM
- IC50 (Neuraminidase [1]): 113 µM
- Activity (Influenza A virus [8]): 6.2%

Structure (SMILES): CC(=O)N[C@H]1[C@H]([C@H](O)[C@H](O)CO)OC(C(=O)O)=C[C@@H]1NC(=O)N[C@@H](C)C(=O)O
- IC50 (Neuraminidase [2]): 663 µM
- IC50 (Neuraminidase [1]): 690 µM
- Activity (Influenza A virus [8]): 0%

Structure (SMILES): CC(=O)N[C@H]1[C@H]([C@H](O)[C@H](O)CO)OC(C(=O)O)=C[C@@H]1NC(=O)N[C@H](C(=O)O)C(C)C
- IC50 (Neuraminidase [2]): 54.4 µM
- IC50 (Neuraminidase [1]): 917 µM
- Activity (Influenza A virus [8]): 0%

Structure (SMILES): CSCC[C@H](NC(=O)N[C@H]1C=C(C(=O)O)O[C@@H]([C@H](O)[C@H](O)CO)[C@@H]1NC(C)=O)C(=O)O
- IC50 (Neuraminidase [2]): 413 µM
- IC50 (Neuraminidase [1]): 406 µM
- Activity (Influenza A virus [8]): 0%

Structure (SMILES): CC(=O)N[C@H]1[C@H]([C@H](O)[C@H](O)CO)OC(C(=O)O)=C[C@@H]1NC(=O)N[C@@H](Cc1ccccc1)C(=O)O
- IC50 (Neuraminidase [2]): 629 µM
- IC50 (Neuraminidase [1]): > 1000 µM
- Activity (Influenza A virus [8]): 0%

Structure (SMILES): CC(=O)N[C@H]1[C@H]([C@H](O)[C@H](O)CO)OC(C(=O)O)=C[C@@H]1NC(=O)N1CCC[C@H]1C(=O)O
- IC50 (Neuraminidase [2]): 574 µM
- IC50 (Neuraminidase [1]): > 1000 µM
- Activity (Influenza A virus [8]): 0%

Structure (SMILES): CC(=O)N[C@H]1[C@H]([C@H](O)[C@H](O)CO)OC(C(=O)O)=C[C@@H]1NC(=O)N[C@H](C(=O)O)[C@@H](C)O
- IC50 (Neuraminidase [2]): 488 µM
- IC50 (Neuraminidase [1]): 392 µM
- Activity (Influenza A virus [8]): 0%

Structure (SMILES): CC(=O)N[C@H]1[C@H]([C@H](O)[C@H](O)CO)OC(C(=O)O)=C[C@@H]1NC(=O)N[C@@H](CC(N)=O)C(=O)O
- IC50 (Neuraminidase [2]): 0.58 µM
- IC50 (Neuraminidase [1]): 2.72 µM
- Activity (Influenza A virus [8]): 8.7%

Structure (SMILES): CC(=O)N[C@H]1[C@H]([C@H](O)[C@H](O)CO)OC(C(=O)O)=C[C@@H]1NC(=O)N[C@@H](CCC(N)=O)C(=O)O
- IC50 (Neuraminidase [2]): 58.1 µM
- IC50 (Neuraminidase [1]): 103 µM

Structure (SMILES): CC(=O)N[C@H]1[C@H]([C@H](O)[C@H](O)CO)OC(C(=O)O)=C[C@@H]1NC(=O)NCC(=O)NCC(=O)O
- IC50 (Neuraminidase [2]): 68.5 µM
- IC50 (Neuraminidase [1]): 70.4 µM
- Activity (Influenza A virus [8]): 37.1%

Structure (SMILES): CC(=O)N[C@H]1[C@H]([C@H](O)[C@H](O)CO)OC(C(=O)O)=C[C@@H]1NC(=O)N[C@@H](C)C(=O)NCC(=O)O
- IC50 (Neuraminidase [2]): 101 µM
- IC50 (Neuraminidase [1]): 126 µM

Structure (SMILES): CC(=O)N[C@H]1[C@H]([C@H](O)[C@H](O)CO)OC(C(=O)O)=C[C@@H]1N1CCOCC1
- IC50 (Neuraminidase [2]): 567 µM
- IC50 (Neuraminidase [1]): 517 µM
- Activity (Influenza A virus [8]): 26.8%

Structure (SMILES): CC(=O)N[C@H]1[C@H]([C@H](O)[C@H](O)CO)OC(C(=O)O)=C[C@@H]1N1CCCC(C(=O)O)C1 (some centres undefined)
- IC50 (Neuraminidase [2]): 496 µM
- IC50 (Neuraminidase [1]): 532 µM

Structure (SMILES): CC(=O)N[C@H]1[C@H]([C@H](O)[C@H](O)CO)OC(C(=O)O)=C[C@@H]1N1CCC2(CC1)OCCO2
- IC50 (Neuraminidase [2]): 511 µM
- IC50 (Neuraminidase [1]): 738 µM
- Activity (Influenza A virus [8]): 0%

Structure (SMILES): CC(=O)N[C@H]1[C@H]([C@H](O)[C@H](O)CO)OC(C(=O)O)=C[C@@H]1N1CCN(c2ccccc2)CC1
- IC50 (Neuraminidase [2]): 836 µM
- IC50 (Neuraminidase [1]): 761 µM

Structure (SMILES): CC(=O)N[C@H]1[C@H]([C@H](O)[C@H](O)CO)OC(C(=O)O)=C[C@@H]1N1CCN(c2cccc(C(F)(F)F)c2)CC1
- IC50 (Neuraminidase [2]): 271 µM
- IC50 (Neuraminidase [1]): 122 µM

Structure (SMILES): CC(=O)N[C@H]1[C@H]([C@H](O)[C@H](O)CO)OC(C(=O)O)=C[C@@H]1NC(=N)N [ZANAMIVIR]
- bioavailability (in vivo [4]): 2.7%
- half-life (in vivo [9]): 24 min
- half-life (in vivo [6]): 15 min
- Vd [10]: 0.03 L/kg
- clearance [11]: 1.42 mL/min/kg
- Activity (Influenza A virus [3]): 67.2%
